Measurements as given in ChEMBL document CHEMBL5291721, “A preclinical secondary pharmacology resource illuminates target-adverse drug reaction associations of marketed drugs” (Nat Commun, 2023).

Target: Voltage-gated inwardly rectifying potassium channel KCNH2 (Homo sapiens, UniProt Q12809)
Type: functional
Details: read-out: AC50
Note: assay procedure not described here.

Voltage-gated inwardly rectifying potassium channel KCNH2, sequence (Q12809 whole entry): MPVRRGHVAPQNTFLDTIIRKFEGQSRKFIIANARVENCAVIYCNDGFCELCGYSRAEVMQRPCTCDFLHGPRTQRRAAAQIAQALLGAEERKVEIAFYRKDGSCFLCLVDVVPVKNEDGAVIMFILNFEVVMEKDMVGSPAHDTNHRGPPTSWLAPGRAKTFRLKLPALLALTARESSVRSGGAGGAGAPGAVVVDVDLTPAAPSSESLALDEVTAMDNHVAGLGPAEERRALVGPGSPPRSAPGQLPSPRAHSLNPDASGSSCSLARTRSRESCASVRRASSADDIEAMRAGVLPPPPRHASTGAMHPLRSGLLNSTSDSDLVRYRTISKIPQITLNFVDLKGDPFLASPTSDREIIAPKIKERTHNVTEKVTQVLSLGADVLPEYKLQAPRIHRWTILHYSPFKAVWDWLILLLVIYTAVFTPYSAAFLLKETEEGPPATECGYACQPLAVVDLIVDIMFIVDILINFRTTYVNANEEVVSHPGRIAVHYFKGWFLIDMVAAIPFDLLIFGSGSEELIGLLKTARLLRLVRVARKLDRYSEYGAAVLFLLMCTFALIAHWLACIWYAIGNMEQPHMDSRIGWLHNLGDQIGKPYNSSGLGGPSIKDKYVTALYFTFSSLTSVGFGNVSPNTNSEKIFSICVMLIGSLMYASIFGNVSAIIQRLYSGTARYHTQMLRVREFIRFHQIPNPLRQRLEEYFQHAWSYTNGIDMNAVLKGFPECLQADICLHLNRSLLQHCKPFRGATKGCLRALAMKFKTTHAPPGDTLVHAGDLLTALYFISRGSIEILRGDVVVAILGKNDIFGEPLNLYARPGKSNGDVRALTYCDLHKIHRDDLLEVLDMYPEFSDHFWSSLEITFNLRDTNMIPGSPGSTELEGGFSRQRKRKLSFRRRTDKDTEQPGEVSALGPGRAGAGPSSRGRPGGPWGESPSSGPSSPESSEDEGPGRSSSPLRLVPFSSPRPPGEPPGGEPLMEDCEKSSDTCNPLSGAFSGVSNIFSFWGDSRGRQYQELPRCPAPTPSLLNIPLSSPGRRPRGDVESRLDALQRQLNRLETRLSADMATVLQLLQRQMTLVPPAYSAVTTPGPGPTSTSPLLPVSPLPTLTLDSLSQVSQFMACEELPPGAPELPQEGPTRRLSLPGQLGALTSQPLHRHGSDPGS

`CC(C)(Oc1ccc(Cl)cc1)C(=O)OCCOC(=O)c1cccnc1` [ETOFIBRATE] was tested. Which AC50 did it give?
Its AC50 is over 30 µM.

Which AC50 does the source give for `COc1ccc(-c2cc(=S)ss2)cc1` [ANETHOLTRITHION] here?
The AC50 was 23.3 µM.

Which AC50 does the source give for `C[C@]12CCC(=O)C=C1[C@@H]1C[C@@H]1[C@H]1[C@@H]3[C@@H]4C[C@@H]4[C@@]4(CCC(=O)O4)[C@@]3(C)CC[C@@H]12` [DROSPIRENONE] here?
The AC50 was over 30 µM.

For `CN(C)CCC(O)(c1ccccc1)c1ccccc1Cl` (stereo not given) [CHLOPHEDIANOL], which AC50 is on record?
Its AC50 is 3.4 µM.

With `CC1(C)O[C@@H]2C[C@H]3[C@@H]4CCC5=CC(=O)C=C[C@]5(C)[C@@]4(F)[C@@H](O)C[C@]3(C)[C@]2(C(=O)CO)O1` [TRIAMCINOLONE ACETONIDE] as the compound, how does the AC50 read?
The AC50 was over 30 µM.

With `C[C@]12C=CC(=O)C=C1C(Cl)=C[C@@H]1[C@@H]2[C@@H](O)C[C@@]2(C)[C@H]1CC[C@]2(O)C(=O)CO` [CLOPREDNOL] as the compound, how does the AC50 read?
Its AC50 is over 30 µM.

For `CCC(=O)c1ccc2c(c1)N(CC(C)N(C)C)c1ccccc1S2` (stereo not given) [PROPIOMAZINE], which AC50 is on record?
The AC50 was 0.685 µM.

With `Oc1cc(Cl)ccc1Oc1ccc(Cl)cc1Cl` [TRICLOSAN] as the compound, how does the AC50 read?
The AC50 was over 30 µM.

Which AC50 does the source give for `CN(C)[C@@H]1C(O)=C(C(=O)NCN2CCCC2)C(=O)[C@@]2(O)C(O)=C3C(=O)c4c(O)cccc4[C@@](C)(O)[C@H]3C[C@@H]12` [ROLITETRACYCLINE] here?
Its AC50 is over 30 µM.

How did the AC50 turn out when `C[C@]12CCC(=O)C=C1C=C[C@@H]1[C@@H]2CC[C@@]2(C)[C@H]1CC[C@@]21CCC(=O)O1` [CANRENONE] was run?
Its AC50 is over 30 µM.
